Legend:
Assay type in all cases: functional
[1] = tested on: UACC-62; assay: Cytotoxicity against human UACC62 cells assessed as cell growth at 0.1 uM after 48 hrs by sulforhodamine B assay relative to control; conditions: UACC-62, 48 h, read-out: Activity
[2] = tested on: 786-0; assay: Cytotoxicity against human 786-0 cells assessed as cell growth at 10 uM after 48 hrs by sulforhodamine B assay relative to control; conditions: 786-0, 48 h, read-out: Activity
[3] = tested on: HT-29; assay: Cytotoxicity against human HT-29 cells assessed as cell growth at 0.1 uM after 48 hrs by sulforhodamine B assay relative to control; conditions: HT-29, 48 h, read-out: Activity
[4] = tested on: K562; assay: Cytotoxicity against human K562 cells assessed as cell growth at 0.01 uM after 48 hrs by sulforhodamine B assay relative to control; conditions: K562, 48 h, read-out: Activity
[5] = tested on: HOP-62; assay: Cytotoxicity against human HOP62 cells assessed as cell growth at 1 uM after 48 hrs by sulforhodamine B assay relative to control; conditions: HOP-62, 48 h, read-out: Activity
[6] = tested on: TK-10; assay: Cytotoxicity against human TK10 cells assessed as cell growth at 1 uM after 48 hrs by sulforhodamine B assay relative to control; conditions: TK-10, 48 h, read-out: Activity
[7] = tested on: HL-60(TB); assay: Cytotoxicity against human HL-60(TB) cells assessed as cell growth at 0.1 uM after 48 hrs by sulforhodamine B assay relative to control; conditions: HL-60, 48 h, read-out: Activity
[8] = tested on: IGROV-1; assay: Cytotoxicity against human IGROV1 cells assessed as cell growth at 100 uM after 48 hrs by sulforhodamine B assay relative to control; conditions: IGROV-1, 48 h, read-out: Activity
[9] = tested on: OVCAR-5; assay: Cytotoxicity against human OVCAR5 cells assessed as cell growth at 10 uM after 48 hrs by sulforhodamine B assay relative to control; conditions: OVCAR-5, 48 h, read-out: Activity
[10] = tested on: HCT-116; assay: Cytotoxicity against human HCT116 cells assessed as cell growth at 0.01 uM after 48 hrs by sulforhodamine B assay relative to control; conditions: HCT-116, 48 h, read-out: Activity
[11] = tested on: PC-3; assay: Cytotoxicity against human PC3 cells assessed as cell growth at 0.1 uM after 48 hrs by sulforhodamine B assay relative to control; conditions: PC-3, 48 h, read-out: Activity
[12] = tested on: OVCAR-5; assay: Cytotoxicity against human OVCAR5 cells assessed as cell growth at 0.01 uM after 48 hrs by sulforhodamine B assay relative to control; conditions: OVCAR-5, 48 h, read-out: Activity
[13] = tested on: SF-268; assay: Cytotoxicity against human SF268 cells assessed as cell growth at 1 uM after 48 hrs by sulforhodamine B assay relative to control; conditions: SF-268, 48 h, read-out: Activity
[14] = tested on: K562; assay: Cytotoxicity against human K562 cells assessed as cell growth at 0.1 uM after 48 hrs by sulforhodamine B assay relative to control; conditions: K562, 48 h, read-out: Activity
[15] = tested on: A549; assay: Cytotoxicity against human A549/ATCC cells assessed as cell growth at 0.1 uM after 48 hrs by sulforhodamine B assay relative to control; conditions: A549, 48 h, read-out: Activity
[16] = tested on: MDA-MB-435; assay: Cytotoxicity against human MDA-MB-435 cells assessed as cell growth at 0.01 uM after 48 hrs by sulforhodamine B assay relative to control; conditions: MDA-MB-435, 48 h, read-out: Activity
[17] = tested on: MCF7; assay: Cytotoxicity against human MCF7 cells assessed as cell growth at 1 uM after 48 hrs by sulforhodamine B assay relative to control; conditions: MCF7, 48 h, read-out: Activity
[18] = tested on: NCI-H522; assay: Cytotoxicity against human NCI-H522 cells assessed as cell growth at 0.01 uM after 48 hrs by sulforhodamine B assay relative to control; conditions: NCI-H522, 48 h, read-out: Activity
[19] = tested on: BT-549; assay: Cytotoxicity against human BT549 cells assessed as cell growth at 1 uM after 48 hrs by sulforhodamine B assay relative to control; conditions: BT-549, 48 h, read-out: Activity
[20] = tested on: OVCAR-4; assay: Cytotoxicity against human OVCAR4 cells assessed as cell growth at 0.01 uM after 48 hrs by sulforhodamine B assay relative to control; conditions: OVCAR-4, 48 h, read-out: Activity
[21] = tested on: UACC-257; assay: Cytotoxicity against human UACC257 cells assessed as cell growth at 100 uM after 48 hrs by sulforhodamine B assay relative to control; conditions: UACC-257, 48 h, read-out: Activity
[22] = tested on: NCI-H226; assay: Cytotoxicity against human NCI-H226 cells assessed as cell growth at 1 uM after 48 hrs by sulforhodamine B assay relative to control; conditions: NCI-H226, 48 h, read-out: Activity
[23] = tested on: UO-31; assay: Cytotoxicity against human UO31 cells assessed as cell growth at 0.1 uM after 48 hrs by sulforhodamine B assay relative to control; conditions: UO-31, 48 h, read-out: Activity
[24] = tested on: SF-268; assay: Cytotoxicity against human SF268 cells assessed as cell growth at 10 uM after 48 hrs by sulforhodamine B assay relative to control; conditions: SF-268, 48 h, read-out: Activity
[25] = tested on: KM12; assay: Cytotoxicity against human KM12 cells assessed as cell growth at 0.1 uM after 48 hrs by sulforhodamine B assay relative to control; conditions: KM12, 48 h, read-out: Activity
[26] = tested on: SK-OV-3; assay: Cytotoxicity against human SKOV3 cells assessed as cell growth at 100 uM after 48 hrs by sulforhodamine B assay relative to control; conditions: SK-OV-3, 48 h, read-out: Activity
[27] = tested on: HCT-15; assay: Cytotoxicity against human HCT15 cells assessed as cell growth at 1 uM after 48 hrs by sulforhodamine B assay relative to control; conditions: HCT-15, 48 h, read-out: Activity
[28] = tested on: HL-60(TB); assay: Cytotoxicity against human HL-60(TB) cells assessed as cell growth at 0.01 uM after 48 hrs by sulforhodamine B assay relative to control; conditions: HL-60, 48 h, read-out: Activity
[29] = tested on: PC-3; assay: Cytotoxicity against human PC3 cells assessed as cell growth at 100 uM after 48 hrs by sulforhodamine B assay relative to control; conditions: PC-3, 48 h, read-out: Activity
[30] = tested on: UO-31; assay: Cytotoxicity against human UO31 cells assessed as cell growth at 100 uM after 48 hrs by sulforhodamine B assay relative to control; conditions: UO-31, 48 h, read-out: Activity
[31] = tested on: IGROV-1; assay: Cytotoxicity against human IGROV1 cells assessed as cell growth at 0.1 uM after 48 hrs by sulforhodamine B assay relative to control; conditions: IGROV-1, 48 h, read-out: Activity
[32] = tested on: SK-MEL-28; assay: Cytotoxicity against human SK-MEL-28 cells assessed as growth inhibition after 48 hrs by sulforhodamine B assay; conditions: SK-MEL-28, 48 h
[33] = tested on: IGROV-1; assay: Cytotoxicity against human IGROV1 cells assessed as cell growth at 1 uM after 48 hrs by sulforhodamine B assay relative to control; conditions: IGROV-1, 48 h, read-out: Activity
[34] = tested on: OVCAR-4; assay: Cytotoxicity against human OVCAR4 cells assessed as cell growth at 100 uM after 48 hrs by sulforhodamine B assay relative to control; conditions: OVCAR-4, 48 h, read-out: Activity
[35] = tested on: DU-145; assay: Cytotoxicity against human DU145 cells assessed as cell growth at 100 uM after 48 hrs by sulforhodamine B assay relative to control; conditions: DU-145, 48 h, read-out: Activity
[36] = tested on: UO-31; assay: Cytotoxicity against human UO31 cells assessed as cell growth at 10 uM after 48 hrs by sulforhodamine B assay relative to control; conditions: UO-31, 48 h, read-out: Activity

Structure (SMILES) | growth at 0.1 µM [1] | growth at 10 µM [2] | growth at 0.1 µM [3] | growth at 0.01 µM [4] | growth at 1 µM [5] | growth at 1 µM [6] | growth at 0.1 µM [7] | growth at 100 µM [8] | growth at 10 µM [9] | growth at 0.01 µM [10] | growth at 0.1 µM [11] | growth at 0.01 µM [12] | growth at 1 µM [13] | growth at 0.1 µM [14] | growth at 0.1 µM [15] | growth at 0.01 µM [16] | growth at 1 µM [17] | growth at 0.01 µM [18] | growth at 1 µM [19] | growth at 0.01 µM [20] | further results
COc1ccc(C(=O)/C=C/c2cc(-c3ccc4c(c3)OCO4)n[nH]2)cc1OC | 100% | 5% | 92% | 96% | 87% | 97% | 96% | -59% | 17% | 105% | 95% | 96% | 92% | 96% | 96% | 98% | 88% | 85% | 95% | 96% | growth at 100 µM [21]: -81%; growth at 1 µM [22]: 106%; growth at 0.1 µM [23]: 81%; growth at 10 µM [24]: -12%; growth at 0.1 µM [25]: 99%; growth at 100 µM [26]: -23%; growth at 1 µM [27]: 86%; growth at 0.01 µM [28]: 97%; growth at 100 µM [29]: -45%; growth at 100 µM [30]: -93%; growth at 0.1 µM [31]: 93%; LC50 [32]: 48.6 µM; TGI [32]: 19.3 µM; growth at 1 µM [33]: 93%; growth at 100 µM [34]: -12%; growth at 100 µM [35]: -97%
COc1cc(-c2cc(/C=C/C(=O)c3ccc(F)c(F)c3)[nH]n2)cc(OC)c1OC | 93% | 11% | 102% | 100% | 94% | 85% | 93% | -1% | 27% | 101% | 93% | 99% | 83% | 109% | 98% | 98% | 99% | 96% | 92% | 90% | growth at 10 µM [36]: 3%; growth at 100 µM [21]: -37%; growth at 1 µM [22]: 95%; growth at 0.1 µM [23]: 86%; growth at 10 µM [24]: 17%; growth at 0.1 µM [25]: 92%; growth at 100 µM [26]: -5%; growth at 1 µM [27]: 88%; growth at 0.01 µM [28]: 102%; growth at 100 µM [29]: -41%; growth at 100 µM [30]: -16%; growth at 0.1 µM [31]: 97%; LC50 [32]: > 100 µM; TGI [32]: 28.2 µM; growth at 1 µM [33]: 95%; growth at 100 µM [34]: -3%
COc1ccc(-c2cc(/C=C/C(=O)c3ccc4c(c3)OCO4)[nH]n2)cc1OC |  |  |  |  |  |  |  |  |  |  |  |  |  |  |  |  |  |  |  |  | GI50 [32]: 1.82 µM
COc1ccc(-c2cc(/C=C/C(=O)c3cc(OC)c(OC)c(OC)c3)[nH]n2)cc1OC | 98% | -94% | 99% | 100% | 71% | 96% | 93% | -72% | -47% | 100% | 93% | 102% | 81% | 94% | 98% | 98% | 53% | 89% | 70% | 94% | growth at 10 µM [36]: -95%; growth at 100 µM [21]: -94%; growth at 1 µM [22]: 73%; growth at 0.1 µM [23]: 82%; growth at 10 µM [24]: -56%; growth at 0.1 µM [25]: 92%; growth at 100 µM [26]: -95%; growth at 1 µM [27]: 57%; growth at 0.01 µM [28]: 98%; growth at 100 µM [29]: -74%; growth at 100 µM [30]: -93%; growth at 0.1 µM [31]: 97%; GI50 [32]: 1.91 µM; LC50 [32]: 10.6 µM; TGI [32]: 4.41 µM; growth at 1 µM [33]: 93%; growth at 100 µM [35]: -88%
COc1cc(-c2cc(/C=C/C(=O)c3ccc(Cl)c(Cl)c3)[nH]n2)cc(OC)c1OC | 94% | 50% | 98% | 99% | 68% | 93% | 100% | 9% | 65% | 102% | 100% | 97% | 92% | 106% | 99% | 94% | 62% | 92% | 92% | 92% | growth at 10 µM [36]: 40%; growth at 100 µM [21]: -10%; growth at 1 µM [22]: 96%; growth at 0.1 µM [23]: 85%; growth at 10 µM [24]: 60%; growth at 0.1 µM [25]: 93%; growth at 100 µM [26]: -70%; growth at 1 µM [27]: 86%; growth at 0.01 µM [28]: 105%; growth at 100 µM [29]: 10%; growth at 100 µM [30]: 18%; growth at 0.1 µM [31]: 98%; LC50 [32]: > 100 µM; TGI [32]: 66 µM; growth at 1 µM [33]: 99%; growth at 100 µM [34]: -22%
COc1cc(C(=O)/C=C/c2cc(-c3cc(OC)c(OC)c(OC)c3)n[nH]2)cc(OC)c1OC | 95% | -77% | 102% | 99% | 78% | 80% | 101% | -97% | -91% | 97% | 92% | 97% | 89% | 104% | 94% | 99% | 40% | 101% | 85% | 95% | growth at 10 µM [36]: -95%; growth at 100 µM [21]: -99%; growth at 1 µM [22]: 86%; growth at 0.1 µM [23]: 90%; growth at 10 µM [24]: -45%; growth at 0.1 µM [25]: 103%; growth at 100 µM [26]: -100%; growth at 1 µM [27]: 76%; growth at 0.01 µM [28]: 112%; growth at 100 µM [29]: -94%; growth at 100 µM [30]: -100%; growth at 0.1 µM [31]: 103%; LC50 [32]: 6.07 µM; TGI [32]: 3.33 µM; growth at 1 µM [33]: 99%; growth at 100 µM [34]: -98%
